Source: PubChem BioAssay (NCI)
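Dose response: 5 concentrations. Exposure: 48 h. Format: 96-well plates. Endpoint: linear interpolation; highest concentration if not reached. At the GI50, growth is halved. TGI is the concentration that stops growth completely.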

Tests used:
Assay in all cases: inhibition of tumour cell growth, NCI panel, 48 h
BT-549 breast = system: BT-549 breast
HCC-2998 colon = system: HCC-2998 colon
HS 578T breast = system: HS 578T breast
KM12 colon = system: KM12 colon
MOLT-4 leukemia = system: MOLT-4 leukemia
NCI-H23 lung = system: NCI-H23 lung
NCI-H460 lung = system: NCI-H460 lung
SN12C renal = system: SN12C renal
SR leukemia = system: SR leukemia
UO-31 renal = system: UO-31 renal

Row | SMILES | GI50 (BT-549 breast) | GI50 (HCC-2998 colon) | TGI (HCC-2998 colon) | GI50 (HS 578T breast) | TGI (HS 578T breast) | GI50 (KM12 colon) | TGI (KM12 colon) | GI50 (MOLT-4 leukemia) | TGI (MOLT-4 leukemia) | GI50 (NCI-H23 lung) | TGI (NCI-H23 lung) | GI50 (NCI-H460 lung) | TGI (NCI-H460 lung) | GI50 (SN12C renal) | TGI (SN12C renal) | GI50 (SR leukemia) | TGI (SR leukemia) | GI50 (UO-31 renal) | TGI (UO-31 renal) | TGI (BT-549 breast)
1 | COc1ccc(C(=O)c2cc(OC)c(OC)c(OC)c2)cc1OC(=O)CCl | < 0.0192 µM | 0.0393 µM | > 100 µM | 0.0281 µM | > 100 µM | < 0.0143 µM | > 100 µM | < 0.0209 µM | > 100 µM | 0.0653 µM | > 100 µM | 0.0399 µM | > 100 µM | 0.0472 µM | > 100 µM | < 0.01 µM | > 100 µM | 0.373 µM | > 100 µM | –
2 | O=C(O)C(/C=C/c1ccccc1)c1ccccc1 (configuration not stated) | – | – | – | – | > 100 µM | – | – | – | > 100 µM | – | > 100 µM | – | > 100 µM | – | > 100 µM | – | > 100 µM | – | > 100 µM | > 100 µM
3 | Cc1c(C(N)=O)sc2c1C(=O)N(Cc1ccccc1)C1=NN=C(c3ccc(Cl)cc3)CN12 | 3.66 µM | 3.97 µM | 17 µM | 5.88 µM | 34.2 µM | 4.07 µM | 16.6 µM | 2.36 µM | 40.1 µM | 3.86 µM | 19.4 µM | 2.13 µM | 7.69 µM | 3.42 µM | 15.6 µM | 3.14 µM | 50.7 µM | 2.24 µM | 15.3 µM | 16.4 µM
4 | O=[N+]([O-])O.[Cu+2].[NH-]CC[NH-].[NH-]CC[NH-] | > 10 µM | > 10 µM | > 10 µM | > 10 µM | > 10 µM | > 10 µM | > 10 µM | > 10 µM | > 10 µM | > 10 µM | > 10 µM | > 10 µM | > 10 µM | > 10 µM | > 10 µM | > 10 µM | > 10 µM | > 10 µM | > 10 µM | > 10 µM
5 | C=C(C)C(=O)Nc1ccc(NC(C)C)cc1 | > 100 µM | > 100 µM | > 100 µM | > 100 µM | > 100 µM | > 100 µM | > 100 µM | > 100 µM | > 100 µM | > 100 µM | > 100 µM | > 100 µM | > 100 µM | > 100 µM | > 100 µM | > 100 µM | > 100 µM | > 100 µM | > 100 µM | > 100 µM
6 | C=C1C(=O)O[C@H]2[C@H]1CC/C(COC(=O)NCc1cn(C)c3ccccc13)=C\CC[C@@]1(C)O[C@@H]21 | 0.469 µM | 2.3 µM | 5.33 µM | 3.54 µM | 35.7 µM | 2.88 µM | 7.67 µM | 1.92 µM | 5.98 µM | 2.01 µM | 4.69 µM | 2.77 µM | 10.1 µM | 1.21 µM | 3.01 µM | 0.395 µM | 4.61 µM | 1.34 µM | 2.62 µM | 1.88 µM
7 | C=C1CCC2C3(C)COC(c4ccc(N(C)C)cc4)OC3CCC2(C)C1C/C=C1/C(=O)OCC1O (configuration not stated) | 2.95 µM | 7.69 µM | 19.8 µM | 2.13 µM | 6.69 µM | 2.62 µM | 7.58 µM | 1.97 µM | 5.68 µM | 4.37 µM | 15.7 µM | 4.1 µM | 16.5 µM | 2.52 µM | 7.98 µM | 1.15 µM | 3.77 µM | 5.63 µM | 18.9 µM | 11.1 µM
8 | COc1ccc(-c2cn(-c3cc(OC)c(OC)c(OC)c3)c(SCc3ccccc3)n2)cc1OC | > 100 µM | 84.7 µM | > 100 µM | > 100 µM | > 100 µM | > 100 µM | > 100 µM | 73.3 µM | > 100 µM | > 100 µM | > 100 µM | > 100 µM | > 100 µM | > 100 µM | > 100 µM | 97.8 µM | > 100 µM | 45.5 µM | > 100 µM | > 100 µM
9 | COC(=O)C1(C)CCC(c2ccc(C)cc2)=C(CC(=O)O)C1 (configuration not stated) | – | – | – | – | > 100 µM | – | – | – | > 100 µM | – | > 100 µM | – | > 100 µM | – | > 100 µM | – | > 100 µM | – | – | > 100 µM
10 | COc1ccc(-c2c[nH]c(C(=O)O)c2-c2cc(OC)c(OC)c(OC)c2)cc1 | 10.4 µM | 7.53 µM | > 100 µM | 3.42 µM | > 100 µM | 4.59 µM | > 100 µM | 4.95 µM | > 100 µM | 7.77 µM | > 100 µM | 3.8 µM | > 100 µM | 7.94 µM | > 100 µM | 2.92 µM | > 100 µM | 5.02 µM | > 100 µM | > 100 µM
11 | C=C(C)C(=O)O[C@H]1CC(=C)[C@@H]2C[C@H](O)[C@](O)(CCl)[C@@H]2[C@H]2OC(=O)C(=C)[C@@H]21 | 1.84 µM | 17.6 µM | 32.4 µM | 11.6 µM | 46.1 µM | 1.8 µM | 3.99 µM | 1.44 µM | 3.84 µM | 11.6 µM | 25.7 µM | 10.2 µM | 28.2 µM | 4.09 µM | 17.1 µM | – | – | 2.73 µM | 9.27 µM | 3.45 µM
12 | Fc1ccc2c(c1)C1=NN(c3ccccc3)C(F)C1CO2 (configuration not stated) | 10.4 µM | – | – | 10.6 µM | 28.1 µM | 16.1 µM | 45.6 µM | > 50 µM | > 50 µM | 11.2 µM | 26.7 µM | 10.5 µM | > 50 µM | 6.93 µM | 14.7 µM | 25.7 µM | > 50 µM | 13.3 µM | > 50 µM | 22.2 µM
13 | Cc1ccc(S(=O)(=O)N/N=C/c2c(O)ccc3ccccc23)cc1 | – | – | 46.1 µM | – | 46.8 µM | – | 44.9 µM | – | > 100 µM | – | 83.2 µM | – | > 100 µM | – | > 100 µM | – | – | – | > 100 µM | 59.6 µM
14 | CC(C)[C@H](N)C(=O)N1CCC[C@H]1B(O)O | > 100 µM | > 100 µM | > 100 µM | > 100 µM | > 100 µM | > 100 µM | > 100 µM | > 100 µM | > 100 µM | > 100 µM | > 100 µM | > 100 µM | > 100 µM | > 100 µM | > 100 µM | – | – | > 100 µM | > 100 µM | > 100 µM
